Experimental data reported in ChEMBL document CHEMBL4376823, “The discovery of a potent and selective third-generation EGFR kinase inhibitor as a therapy for EGFR L858R/T790M double mutant non-small cell lung cancer” (Eur J Med Chem, 2019).

How the values were obtained:
NCI-H1975 [1] = test: Induction of apoptosis in human NCI-H1975 cells assessed as necrotic cells at 25 nM incubated for 48 hrs by propidium iodide and annexin-V FITC staining based flow cytometry (reference value: 0.01 %); assay type: functional
NCI-H1975 [2] = test: Induction of apoptosis in human NCI-H1975 cells assessed as late apoptotic cells at 5 nM incubated for 48 hrs by propidium iodide and annexin-V FITC staining based flow cytometry (reference value: 0.23 %); assay type: functional
[3] = MRT (0 to infinity) in ICR mouse at 5 mg/kg, iv; assay type: ADME, organism-based; settings: in vivo
[4] = Selectivity index, ratio of IC50 for human HK2 cells to IC50 for human NCI-H1975 cells expressing EGFR T790M/L858R mutant
NCI-H1975 [5] = test: Induction of apoptosis in human NCI-H1975 cells assessed as late apoptotic cells at 50 nM incubated for 24 hrs by propidium iodide and annexin-V FITC staining based flow cytometry (reference value: 0.23 %); assay type: functional
NCI-H1975 [6] = test: Induction of apoptosis in human NCI-H1975 cells assessed as necrotic cells at 25 nM incubated for 72 hrs by propidium iodide and annexin-V FITC staining based flow cytometry (reference value: 0.01 %); assay type: functional
[7] = target: T1, Epidermal growth factor receptor (Homo sapiens, UniProt P00533, L858R/T790M); test: Inhibition of recombinant human GST-tagged EGFR T790M/L858R mutant expressed in baculovirus expression system using Tyr 04 as substrate incubated for 1 hr by Z'-LYTE assay
Target sequence in this assay (P00533 25-1210 T790M/L858R limits assumed): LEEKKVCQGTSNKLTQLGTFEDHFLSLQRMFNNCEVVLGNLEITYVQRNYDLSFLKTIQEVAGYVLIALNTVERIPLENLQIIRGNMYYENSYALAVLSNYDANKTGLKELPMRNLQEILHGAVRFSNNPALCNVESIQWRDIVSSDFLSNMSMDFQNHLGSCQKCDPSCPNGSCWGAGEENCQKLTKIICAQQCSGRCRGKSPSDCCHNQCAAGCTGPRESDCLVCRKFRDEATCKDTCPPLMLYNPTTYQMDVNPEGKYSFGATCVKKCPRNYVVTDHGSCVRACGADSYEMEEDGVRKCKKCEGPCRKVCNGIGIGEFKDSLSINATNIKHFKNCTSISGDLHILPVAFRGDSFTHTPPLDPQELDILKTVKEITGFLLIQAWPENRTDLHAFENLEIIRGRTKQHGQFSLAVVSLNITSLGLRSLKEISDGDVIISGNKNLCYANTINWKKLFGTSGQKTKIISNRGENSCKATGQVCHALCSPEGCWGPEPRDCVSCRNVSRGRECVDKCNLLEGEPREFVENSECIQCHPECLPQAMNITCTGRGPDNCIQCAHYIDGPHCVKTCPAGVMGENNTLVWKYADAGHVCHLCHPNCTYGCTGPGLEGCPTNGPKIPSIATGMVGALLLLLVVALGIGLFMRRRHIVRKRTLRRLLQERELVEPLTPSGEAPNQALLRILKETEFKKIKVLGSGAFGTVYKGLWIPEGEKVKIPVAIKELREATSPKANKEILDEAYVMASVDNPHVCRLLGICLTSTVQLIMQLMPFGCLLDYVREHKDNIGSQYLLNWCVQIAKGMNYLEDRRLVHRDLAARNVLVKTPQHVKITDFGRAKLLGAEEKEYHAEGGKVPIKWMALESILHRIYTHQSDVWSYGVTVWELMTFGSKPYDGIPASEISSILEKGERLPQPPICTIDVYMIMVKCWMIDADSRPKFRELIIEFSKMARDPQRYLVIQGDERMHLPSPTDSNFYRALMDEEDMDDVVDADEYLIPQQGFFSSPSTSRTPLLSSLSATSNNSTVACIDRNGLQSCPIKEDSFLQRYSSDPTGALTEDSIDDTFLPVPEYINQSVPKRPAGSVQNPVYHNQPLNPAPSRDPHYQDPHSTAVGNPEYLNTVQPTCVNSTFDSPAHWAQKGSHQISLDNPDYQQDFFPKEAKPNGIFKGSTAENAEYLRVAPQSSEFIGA

NCI-H1975 [8] = test: Induction of apoptosis in human NCI-H1975 cells assessed as viable cells at 25 nM incubated for 48 hrs by propidium iodide and annexin-V FITC staining based flow cytometry (reference value: 99.05 %); assay type: functional; settings: NCI-H1975, 48 h, read-out: Activity
NCI-H1975 [9] = test: Induction of apoptosis in human NCI-H1975 cells assessed as early apoptotic cells at 50 nM incubated for 72 hrs by propidium iodide and annexin-V FITC staining based flow cytometry (reference value: 2.43 %); assay type: functional
NCI-H1975 [10] = test: Induction of apoptosis in human NCI-H1975 cells assessed as late apoptotic cells at 50 nM incubated for 72 hrs by propidium iodide and annexin-V FITC staining based flow cytometry (reference value: 0.01 %); assay type: functional
[11] = Cmax in ICR mouse at 10 mg/kg, po; assay type: ADME, organism-based; set-up: dose 10 mg/kg, route oral; settings: in vivo
NCI-H1975 [12] = test: Inhibition of cell migration in human NCI-H1975 cells at 5 nM incubated for 24 hrs by phase contrast microscopy relative to control; assay type: functional; settings: NCI-H1975, 24 h
NCI-H1975 [13] = test: Induction of apoptosis in human NCI-H1975 cells assessed as early apoptotic cells at 5 nM incubated for 48 hrs by propidium iodide and annexin-V FITC staining based flow cytometry (reference value: 0.95 %); assay type: functional
NCI-H1975 [14] = test: Induction of apoptosis in human NCI-H1975 cells assessed as necrotic cells at 25 nM incubated for 24 hrs by propidium iodide and annexin-V FITC staining based flow cytometry (reference value: 0.01 %); assay type: functional
[15] = Oral bioavailability in ICR mouse at 10 mg/kg; assay type: ADME, organism-based; settings: in vivo
NCI-H1975 [16] = test: Induction of apoptosis in human NCI-H1975 cells assessed as early apoptotic cells at 25 nM incubated for 24 hrs by propidium iodide and annexin-V FITC staining based flow cytometry (reference value: 0.94 %); assay type: functional
PC-9 = test: Antiproliferative activity against human PC9 cells expressing EGFR L858R mutant assessed as reduction in cell viability incubated for 72 hrs by MTT assay; assay type: functional, cell-based; settings: pc-9
[17] = Selectivity index, ratio of IC50 for human LO2 cells to IC50 for human NCI-H1975 cells expressing EGFR T790M/L858R mutant; assay type: toxicity
NCI-H1975 [18] = test: Induction of apoptosis in human NCI-H1975 cells assessed as early apoptotic cells at 5 nM incubated for 24 hrs by propidium iodide and annexin-V FITC staining based flow cytometry (reference value: 0.94 %); assay type: functional
NCI-H1975 [19] = test: Induction of apoptosis in human NCI-H1975 cells assessed as late apoptotic cells at 25 nM incubated for 24 hrs by propidium iodide and annexin-V FITC staining based flow cytometry (reference value: 0.23 %); assay type: functional
[20] = target: T1, Epidermal growth factor receptor; test: Inhibition of EGFR T790M/L858R mutant in human NCI-H1975 cells assessed as reduction in EGFR Y1068 phosphorylation incubated for 4 hrs by Western blot analysis; assay type: cell-based
Target sequence in this assay (P00533 whole entry T790M/L858R, looked up): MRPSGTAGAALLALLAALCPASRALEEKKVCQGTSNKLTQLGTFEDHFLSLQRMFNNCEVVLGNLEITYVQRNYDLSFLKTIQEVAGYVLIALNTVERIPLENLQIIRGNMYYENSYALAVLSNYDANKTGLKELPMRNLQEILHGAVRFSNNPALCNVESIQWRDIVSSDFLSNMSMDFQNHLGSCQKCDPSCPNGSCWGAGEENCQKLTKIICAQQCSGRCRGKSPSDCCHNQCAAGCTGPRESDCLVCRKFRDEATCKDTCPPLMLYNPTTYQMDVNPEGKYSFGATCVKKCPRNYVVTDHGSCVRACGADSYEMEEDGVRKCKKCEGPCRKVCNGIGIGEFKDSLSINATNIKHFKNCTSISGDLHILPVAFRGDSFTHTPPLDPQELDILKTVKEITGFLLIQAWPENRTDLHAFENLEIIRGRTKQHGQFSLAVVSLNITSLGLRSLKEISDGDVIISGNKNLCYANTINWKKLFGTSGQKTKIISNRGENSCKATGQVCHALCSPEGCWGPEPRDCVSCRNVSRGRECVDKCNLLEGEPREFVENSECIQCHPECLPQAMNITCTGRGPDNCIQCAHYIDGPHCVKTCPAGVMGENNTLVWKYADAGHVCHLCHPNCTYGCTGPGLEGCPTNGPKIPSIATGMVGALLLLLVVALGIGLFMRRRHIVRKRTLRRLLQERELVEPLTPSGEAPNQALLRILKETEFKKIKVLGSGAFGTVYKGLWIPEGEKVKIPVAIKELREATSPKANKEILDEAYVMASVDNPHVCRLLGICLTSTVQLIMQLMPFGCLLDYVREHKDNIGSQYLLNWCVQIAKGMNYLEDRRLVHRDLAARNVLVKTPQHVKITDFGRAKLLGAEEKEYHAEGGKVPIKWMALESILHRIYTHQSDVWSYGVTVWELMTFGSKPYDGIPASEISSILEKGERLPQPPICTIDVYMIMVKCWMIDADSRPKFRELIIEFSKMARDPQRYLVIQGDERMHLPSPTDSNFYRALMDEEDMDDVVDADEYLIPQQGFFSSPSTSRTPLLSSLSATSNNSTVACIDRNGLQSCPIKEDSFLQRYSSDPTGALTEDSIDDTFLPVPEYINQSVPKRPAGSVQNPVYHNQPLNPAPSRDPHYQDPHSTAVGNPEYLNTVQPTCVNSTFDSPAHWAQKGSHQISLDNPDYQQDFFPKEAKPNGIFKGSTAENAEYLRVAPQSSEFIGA

[21] = MRT (0 to infinity) in ICR mouse at 10 mg/kg, po; assay type: ADME, organism-based; settings: in vivo
[22] = target: Epidermal growth factor receptor (Homo sapiens, UniProt P00533, L858R); test: Inhibition of recombinant human GST-tagged EGFR L858R mutant expressed in baculovirus expression system using Tyr 04 as substrate incubated for 1 hr by Z'-LYTE assay
Chain of Epidermal growth factor receptor (Homo sapiens, UniProt P00533, L858R) (P00533 25-1210 L858R limits assumed): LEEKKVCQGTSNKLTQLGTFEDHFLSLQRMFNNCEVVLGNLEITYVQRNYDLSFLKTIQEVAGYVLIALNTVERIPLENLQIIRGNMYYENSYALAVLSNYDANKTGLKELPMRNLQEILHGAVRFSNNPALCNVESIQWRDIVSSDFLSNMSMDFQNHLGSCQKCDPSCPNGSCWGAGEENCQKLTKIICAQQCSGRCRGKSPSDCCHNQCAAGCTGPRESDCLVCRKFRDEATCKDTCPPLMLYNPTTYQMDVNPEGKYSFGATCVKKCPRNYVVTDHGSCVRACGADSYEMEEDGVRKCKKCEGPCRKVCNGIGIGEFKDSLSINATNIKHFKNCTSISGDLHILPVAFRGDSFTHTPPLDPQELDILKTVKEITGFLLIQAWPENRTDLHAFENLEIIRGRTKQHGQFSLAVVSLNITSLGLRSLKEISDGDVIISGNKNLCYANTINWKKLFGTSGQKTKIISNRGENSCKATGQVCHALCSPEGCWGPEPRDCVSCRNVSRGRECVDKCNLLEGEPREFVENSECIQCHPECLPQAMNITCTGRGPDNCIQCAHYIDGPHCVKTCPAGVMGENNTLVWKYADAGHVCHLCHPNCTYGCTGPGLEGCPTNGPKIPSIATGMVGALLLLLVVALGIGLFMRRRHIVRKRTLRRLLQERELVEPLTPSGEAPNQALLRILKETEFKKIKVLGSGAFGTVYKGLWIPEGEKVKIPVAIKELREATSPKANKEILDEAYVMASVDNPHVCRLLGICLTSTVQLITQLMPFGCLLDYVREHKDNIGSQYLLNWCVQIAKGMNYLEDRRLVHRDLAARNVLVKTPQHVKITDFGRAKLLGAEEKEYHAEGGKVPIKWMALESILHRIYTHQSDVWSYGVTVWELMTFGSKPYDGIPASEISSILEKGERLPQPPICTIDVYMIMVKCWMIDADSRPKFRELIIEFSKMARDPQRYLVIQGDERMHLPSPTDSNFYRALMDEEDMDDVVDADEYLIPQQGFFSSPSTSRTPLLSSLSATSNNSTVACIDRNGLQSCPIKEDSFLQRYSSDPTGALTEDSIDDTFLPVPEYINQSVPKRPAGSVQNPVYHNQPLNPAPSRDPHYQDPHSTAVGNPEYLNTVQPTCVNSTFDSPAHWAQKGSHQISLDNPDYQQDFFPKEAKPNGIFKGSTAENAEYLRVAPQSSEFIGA

[23] = MRT (0 to t) in ICR mouse at 10 mg/kg, po; assay type: ADME, organism-based; settings: in vivo
[24] = Selectivity index, ratio of IC50 for human HEK293A cells to IC50 for human NCI-H1975 cells expressing EGFR T790M/L858R mutant; assay type: toxicity
NCI-H1975 [25] = test: Induction of apoptosis in human NCI-H1975 cells assessed as necrotic cells at 5 nM incubated for 72 hrs by propidium iodide and annexin-V FITC staining based flow cytometry (reference value: 0.01 %); assay type: functional
NCI-H1975 [26] = test: Induction of apoptosis in human NCI-H1975 cells assessed as viable cells at 50 nM incubated for 24 hrs by propidium iodide and annexin-V FITC staining based flow cytometry (reference value: 98.82 %); assay type: functional; settings: NCI-H1975, 24 h, read-out: Activity
[27] = target: Epidermal growth factor receptor (Homo sapiens, UniProt P00533); test: Inhibition of recombinant human GST-tagged EGFR (668 to 1210 residues) expressed in baculovirus expression system using Tyr 04 as substrate incubated for 1 hr by Z'-LYTE assay
Chain of Epidermal growth factor receptor (Homo sapiens, UniProt P00533) (P00533 whole entry, the tested form may be a part): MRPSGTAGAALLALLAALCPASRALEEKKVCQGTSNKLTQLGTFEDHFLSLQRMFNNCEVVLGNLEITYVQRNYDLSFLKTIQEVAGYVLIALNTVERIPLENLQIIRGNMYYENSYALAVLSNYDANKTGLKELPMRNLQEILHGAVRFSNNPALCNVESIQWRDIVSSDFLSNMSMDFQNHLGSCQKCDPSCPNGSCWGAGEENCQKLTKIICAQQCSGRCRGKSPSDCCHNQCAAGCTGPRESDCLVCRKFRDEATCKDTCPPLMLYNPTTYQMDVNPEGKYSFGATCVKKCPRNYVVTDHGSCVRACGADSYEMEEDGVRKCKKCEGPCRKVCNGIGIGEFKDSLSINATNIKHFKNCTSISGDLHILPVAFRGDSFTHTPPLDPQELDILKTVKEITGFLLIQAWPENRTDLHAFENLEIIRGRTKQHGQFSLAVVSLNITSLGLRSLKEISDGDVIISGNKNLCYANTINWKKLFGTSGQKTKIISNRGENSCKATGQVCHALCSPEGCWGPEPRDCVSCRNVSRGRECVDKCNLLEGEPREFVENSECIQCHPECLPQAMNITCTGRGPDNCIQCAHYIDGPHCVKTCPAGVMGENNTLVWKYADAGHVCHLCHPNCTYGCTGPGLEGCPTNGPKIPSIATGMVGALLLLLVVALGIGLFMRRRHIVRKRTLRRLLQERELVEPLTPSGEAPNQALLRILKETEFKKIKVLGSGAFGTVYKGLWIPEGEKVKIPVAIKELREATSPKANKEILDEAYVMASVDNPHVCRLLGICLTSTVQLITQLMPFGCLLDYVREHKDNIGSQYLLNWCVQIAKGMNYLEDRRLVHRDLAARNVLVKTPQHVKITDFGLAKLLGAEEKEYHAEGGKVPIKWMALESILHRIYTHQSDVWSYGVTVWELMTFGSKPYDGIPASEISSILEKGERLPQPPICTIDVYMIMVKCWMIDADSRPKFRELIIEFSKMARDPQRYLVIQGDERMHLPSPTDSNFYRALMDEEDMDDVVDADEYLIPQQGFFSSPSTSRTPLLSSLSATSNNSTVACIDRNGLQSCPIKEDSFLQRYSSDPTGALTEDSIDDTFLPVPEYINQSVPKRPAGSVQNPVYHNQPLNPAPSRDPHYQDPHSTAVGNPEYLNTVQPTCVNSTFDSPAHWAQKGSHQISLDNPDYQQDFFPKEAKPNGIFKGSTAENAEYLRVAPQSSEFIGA

[28] = Cytotoxicity against human HEK293A cells expressing EGFR assessed as reduction in cell viability incubated for 72 hrs by MTT assay; assay type: cell-based, HEK293-A; settings: hek293-a
NCI-H1975 [29] = test: Induction of apoptosis in human NCI-H1975 cells assessed as necrotic cells at 50 nM incubated for 24 hrs by propidium iodide and annexin-V FITC staining based flow cytometry (reference value: 0.01 %); assay type: functional
NCI-H1975 [30] = test: Induction of apoptosis in human NCI-H1975 cells assessed as late apoptotic cells at 50 nM incubated for 48 hrs by propidium iodide and annexin-V FITC staining based flow cytometry (reference value: 0.23 %); assay type: functional
NCI-H1975 [31] = test: Induction of apoptosis in human NCI-H1975 cells assessed as viable cells at 5 nM incubated for 72 hrs by propidium iodide and annexin-V FITC staining based flow cytometry (reference value: 97.55 %); assay type: functional; settings: NCI-H1975, 72 h, read-out: Activity
NCI-H1975 [32] = test: Induction of apoptosis in human NCI-H1975 cells assessed as viable cells at 50 nM incubated for 48 hrs by propidium iodide and annexin-V FITC staining based flow cytometry (reference value: 99.05 %); assay type: functional; settings: NCI-H1975, 48 h, read-out: Activity
NCI-H1975 [33] = test: Induction of apoptosis in human NCI-H1975 cells assessed as early apoptotic cells at 5 nM incubated for 72 hrs by propidium iodide and annexin-V FITC staining based flow cytometry (reference value: 2.43 %); assay type: functional

Compound: C=CC(=O)Nc1cc(Nc2nccc(-c3cn(C)c4ccccc34)n2)c(OC)cc1[S+]([O-])CCN(C)C (single isomer, unassigned; (-))
- Activity (NCI-H1975 [1]): 0.69%
- Activity (NCI-H1975 [2]): 0.06%
- MRT inf [3]: 1.21 h
- Ratio IC50 [4]: >1000
- Activity (NCI-H1975 [5]): 2.3%
- Activity (NCI-H1975 [6]): 1.85%
- IC50 [7]: 4 nM
- viability at 0.025 µM (NCI-H1975 [8]): 44.7%
- Activity (NCI-H1975 [9]): 58.1%
- Activity (NCI-H1975 [10]): 30.74%
- Cmax [11]: 695 ng/mL
- inhibition at 0.005 µM (NCI-H1975 [12]): 45.1%
- Activity (NCI-H1975 [13]): 22.89%
- Activity (NCI-H1975 [14]): 0.14%
- bioavailability [15]: 73.7%
- Activity (NCI-H1975 [16]): 22.23%
- IC50 (PC-9): 15 nM
- Ratio IC50 [17]: > 1000
- Activity (NCI-H1975 [18]): 14.89%
- Activity (NCI-H1975 [19]): 0.86%
- EC50 [20]: 7.06 nM
- MRT inf [21]: 2.68 h
- IC50 [22]: 4 nM
- MRT last [23]: 2.32 h
- Ratio IC50 [24]: 192
- Activity (NCI-H1975 [25]): 1.2%
- viability at 0.05 µM (NCI-H1975 [26]): 65.6%
- IC50 [27]: 229 nM
- IC50 [28]: 1920 nM
- Activity (NCI-H1975 [29]): 0.45%
- Activity (NCI-H1975 [30]): 29.59%
- viability at 0.005 µM (NCI-H1975 [31]): 57.5%
- viability at 0.05 µM (NCI-H1975 [32]): 13.7%
- Activity (NCI-H1975 [33]): 21.59%
